The record followed here is patent US11464785B2, “Treatment of addiction and impulse-control disorders using PDE7 inhibitors” (priority 2010, dated 2022).

The subject of one data set is binge eating model. The experiment in a line: Stress-induced binge eating of highly palatable food (HPF). It is filed as in vivo, female rats. To be noted: topiramate 60 mg/kg i.p. From the text:
To mimic binge eating disorder in laboratory animals, a binge eating model was developed where binge eating is elicited by yo-yo dieting and stressful exposure to Highly Palatable Food (HPF). In this model, female rats are exposed to repeated cycles of restriction and a stressful procedure characterized by exposure of animals to HPF without the possibility of accessing it. This procedure elicits a selective increase of highly palatable food intake that is overconsumed during a very short period of time. As described below, using this model, endowed with significant predictive and face validity, the effect of PDE7 inhibitors on binge eating (one of the most significant forms of food addiction) was investigated.
Reinstatement of binge eating behavior has been obtained in experimental animals through a combination of repeated food restriction and stress. [Cifani et al, Psychopharmacology 204:113-125 (2009)]. For the present invention, stress-induced binge eating was tested as in Cifani.
Rats were housed in individual cages and were given chow and water ad libitum for two weeks prior to the experiment. […]
After one hour, animals were given HPF and ad libitum chow. Intake of HPF was measured after two hours.

Data set [1] concerns dopamine release in the nucleus accumbens. The data set can be described thus: In vivo microdialysis of dopamine release in the nucleus accumbens. To be noted: nicotine 0.4 mg/kg sc. Further details: species or system Male Wistar rats.
A further data set has as its system dopaminergic VTA neurons. The experiment in a line: Whole-cell current clamp recordings from rat VTA horizontal slices. It is filed as cell-based. From the text: The reinforcing effects of nicotine are believed to result from its activation of dopaminergic neurons in the ventral tegmental area (VTA) (Pidoplichko V I et al., Nature 390:401-404 (1997); Liu L, et al., Nicotine persistently activates ventral tegmental area dopaminergic neurons via nicotinic acetylcholine receptors containing α4 and α6 subunits. Mol Pharmacol, 81(4):541-8 (2012)). The inventors sought to evaluate the anti-addictive potential of PDE7 inhibitors by studying their ability to modify basal and drug of abuse-induced changes in VTA dopamine activity by performing whole-cell current clamp recordings from rat VTA horizontal slices ex vivo. For this purpose nicotine was used as an example of drugs of abuse.
Dopaminergic neurons were identified by the presence of a large hyperpolarizing current. Johnson, S. W., et al., “Opioids excite dopamine neurons by hyperpolarization of local interneurons,”J. Neurosci 12:483-488 (1992).
An additional electrophysiology study was completed to evaluate the effect of the PDE7 inhibitor OMS182399 on VTA DA neuronal activity in the setting of cocaine, morphine or alcohol. The preparation of VTA slices was as described above in Example 8.
Drug-induced changes in firing rate were calculated by averaging the effects after drug administration (five minutes) and normalizing to the pre-drug baseline. All the numerical data are given as mean±s.e.m. Data were compared and analyzed by utilizing two-way ANOVA for repeated measures (treatment×time), or Student's t-test for repeated measures, when appropriate. Statistical analysis was performed by means of the GraphPad Prism program. The significance level was established at P<0.05.
The acute effect of OMS182399 was investigated on dopamine neurons of the VTA in a rat horizontal brain slice preparation containing the midbrain. Whole-cell current-clamp recordings were performed from VTA dopamine neurons.

Data set [2] relates to rat model of cocaine addiction. It is filed as in vivo, rats. Here is the method: PDE7 inhibitors and DRD1 agonists were next tested for their effect on cocaine priming-induced relapse. Rats were trained to self-administer cocaine, as above, and were then exposed to extinction conditions. Cocaine was replaced with saline solution. […] Rats were treated with vehicle or agent and ten minutes later were administered cocaine. Lever pressing was counted for one hour following cocaine administration. […] Once again, administration of PDE7 inhibitors and dopamine D1 agonist had very different results in cocaine addicted animals.

Another data set relates to open field activity. The experiment in a line: Open field activity model. It is filed as in vivo, wild type C57BL/6 mice. To be noted: C57BL/6 mice; SKF82958 1 mg/kg; FIG. 36. Here is the method: In order to assess the ability of PDE7 inhibitors to enhance DRD1 signaling in vivo, the effects of the PDE7 inhibitor OMS182401 and the DRD1 agonist SKF82958, alone and in combination, were evaluated in an open field activity model using wild type C57BL/6 mice.

For data set [3], the system named is rat model of cocaine addiction.
Procedure: Cocaine hydrochloride (obtained from the National Institute on Drug Abuse, Bethesda, Md.) was dissolved in sterile physiological saline at a concentration of 0.25 mg/0.1 mL. Drug or vehicle solution was infused at a volume of 0.1 mL over 4 seconds. […] OMS182401 was given intraperitoneally.
Male Wistar rats weighing between 180 and 200 g at the time of arrival in the lab were used. The rats were housed in groups of three in a humidity—(45-55%) and temperature-controlled (22 degrees C.) vivarium on a 12 h: 12 h reverse light/dark cycle (on, 17:00; off, 05:00) with ad libitum access to food and water. Experiments were conducted during the dark phase of the light/dark cycle. One week after arrival, rats were subjected to surgery, and a silastic catheter was implanted into the right jugular vein. The experimental stations consisted of operant conditioning chambers (Med Associate Inc.) enclosed in sound-attenuating, ventilated environmental cubicles. Cocaine was delivered by a plastic tube connected to the catheter before the beginning of the session. […] An IBM-compatible computer controlled the delivery of fluids and recording of the behavioral data.
Cocaine self-administration training continued until a stable baseline of responding was reached (less than 10% variation for 3 consecutive days calculated for each single rat). At this point, drug testing began.
Rats were treated with PDE7 inhibitors (0.0, 0.3, 1.0 and 3.0 mg/kg) given i.p. 12 hours and 1 hour before the beginning of the self-administration session. […] A 3-day interval was allowed between drug testing. During these intervals, cocaine self-administration was continued to re-establish baseline lever responses.
Cocaine self-administration training continued until a stable baseline of responding was reached (less than 10% variation for 3 consecutive days calculated for each single rat). At this point, drug testing began. The animals were injected with vehicle or drug 15 minutes before the test session.
In order to test the effect of raising cAMP levels through activation of DRD1 on cocaine self-administration, the DRD1 agonist SKF82958 was administered i.p. to rats trained to self-administer cocaine. […] SKF82958 was administered at 1.0 mg/kg. […] The long-access model was not evaluated in this case.
Rats were surgically implanted with jugular catheters and allowed to recover for one week. Animals then underwent daily six-hour (long-access) training sessions in which each press of the active lever triggered delivery of 0.25 mg cocaine. After one week, the ratio was increased so that five lever presses were required to receive the same amount of cocaine. The animal training continued for about six weeks. […] Reinforced responses were assessed over two hour periods.
For data set [4], the system named is rat model of cocaine addiction. The following applies: in vivo.

For the molecule `CC1(C)O[C@@H]2[C@@H](CO[C@@]3(COS(N)(=O)=O)OC(C)(C)O[C@@H]23)O1` [Topiramate], the “times of observation at which HPF intake was reduced, R+S group, highest dose” value with binge eating model (OMS182056 3 mg/kg i.p., p<0.05) was “evident at all the times of observation”. In addition, the “HPF intake, restricted and stressed (R+S) group” value in the data set with binge eating model (rats, two hours, OMS182401 3.0 mg/kg i.p., OMS182056 1.0 and 3.0 mg/kg i.p., FIGS. 23D, 24D, 25D) is recorded as “reduced HPF intake only in the R+S group”.
For the molecule `CN1CCC[C@H]1c1cccnc1` [nicotine], in data set [1], the “DA release in the NAc shell” value was “increases DA release in the NAc shell”.
Regarding `CCO` [Ethanol], in the data set on dopaminergic VTA neurons (Ethanol 100 mM, 5 min, n=6), the “firing rate of VTA DA cells” value was 158.3±26.7 % of basal firing rate.
For the molecule `Br.C=CCN1CCc2c(cc(O)c(O)c2Cl)C(c2ccccc2)C1` (racemic) [SKF82958, (±)-6-Chloro-7,8-dihydroxy-3-allyl-1-phenyl-2,3,4,5-tetrahydro-1H-3-benzazepine hydrobromide], the “behavior of treated animals in cocaine priming test” value in data set [2] (rat, in vivo) is listed as “exhibited significantly abnormal behavior”. Also, in data set [2] (rats, agent ten minutes before cocaine, lever pressing for one hour, FIGS. 13 and 14), the “cocaine priming-induced lever pressing” value is “significantly reduced lever pressing induced by cocaine priming”. Moreover, in the data set with dopaminergic VTA neurons (30 nM OMS182401 alone or 1 uM SKF82958 alone), the “nicotine-induced activation of VTA neurons, single agents at low concentration” value is on record as “ineffective”. Also, in the data set on dopaminergic VTA neurons (OMS182401, SKF82958 at 3.0 and 10.0 uM, FIG. 29A), the “spontaneous firing rate of dopaminergic VTA neurons” value was “a similar effect was observed”. The “open-field activity, single agents” value in the data set on open field activity was “stimulated open-field activity at 1 mg/kg”. The “behavior of animals given the agent with cocaine” value in data set [3] (rat, in vivo, ip) was “exhibited significantly abnormal behavior and were extremely aggressive”. The “cocaine self-administration, short-access model” value in data set [3] (rats, 2-hour sessions, OMS182401 15 minutes before session (FIG. 3), SKF82958 1.0 mg/kg i.p. (FIG. 4)) is “significantly reduced cocaine self-administration in the short-access model”. In data set [3] (rats, short-access, i.p.), the “cocaine self-administration, first hour after treatment” value is on record as “a significant reduction in self-administration was observed at both doses” and the “cocaine self-administration, two hours after treatment” value is listed as “the trend of self-administration reduction was non-significant”. For the same molecule, in data set [4], the “lever pressing when administered on its own (addictive properties)” value is reported as “Neither agent caused increased lever pressing”.
`COC(=O)[C@H]1[C@@H](OC(=O)c2ccccc2)C[C@@H]2CC[C@H]1N2C` [cocaine]: the “firing rate of VTA DA cells” value in the data set on dopaminergic VTA neurons (cocaine 1 μM, 5 min, n=7) is 36.4±9.1 % of basal firing rate.
With `CN1CC[C@]23c4c5ccc(O)c4O[C@H]2[C@@H](O)C=C[C@H]3[C@H]1C5` [morphine], the “firing rate of VTA DA cells” value in the data set with dopaminergic VTA neurons (morphine, 3 min, n=7) was 224.4±19.5 % of basal firing rate.
